Values of other authors, collected in patent US20020006953A1, “MODIFICATION OF CHOLESTEROL CONCENTRATIONS WITH CITUS PHYTOCHEMICALS” (priority 1999, published 2002).

What was measured:
[1] = 10% hesperidin diet

| SMILES | plasma concentration of triacylglycerols [1] | activity of lipase (lipase) | net secretion of apo B (HepG2 cells) |
| --- | --- | --- | --- |
| COc1ccc([C@@H]2CC(=O)c3c(O)cc(O[C@@H]4O[C@H](CO[C@@H]5O[C@@H](C)[C@H](O)[C@@H](O)[C@H]5O)[C@@H](O)[C@H](O)[C@H]4O)cc3O2)cc1O [hesperidin] | significantly reduced | inhibit | – |
| COc1ccc([C@@H]2CC(=O)c3c(O)cc(O)cc3O2)cc1O [hesperetin] | – | – | reduced |
| O=C1C[C@@H](c2ccc(O)cc2)Oc2cc(O)cc(O)c21 [naringinin] | – | – | reduced |
